From US20260285850A1, “SUBSTITUTED OXAZOLIDINONES AND IMIDAZOLINONES AS HERBICIDES” (FMC CORPORATION, priority 2023, published 2026)

Tests used:
Assay type in all cases: in vivo
[1] = system: oat, wild (wild oat, Avena fatua); test: Test A postemergence application, visual injury rating 0-100; details: 10 days
In short: (§1)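 Scale 0–100 (no effect to complete control), visual, versus untreated controls, read 10 days after application. Application: preemergence directed spray onto seeded loam–sand soil, or postemergence to young plants; formulation in non-phytotoxic solvent with surfactant.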

[2] = system: galium (catchweed bedstraw, Galium aparine); test: as above; details: 10 days
In short: as §1

[3] = system: blackgrass (Alopecurus myosuroides); test: as above; details: 10 days
In short: as §1

[4] = system: palmer (palmer amaranth, palmer pigweed, Amaranthus palmeri); test: as above; details: 10 days
In short: as §1

soybean (Glycine max) [5] = test: as above; details: 10 days
In short: as §1

[6] = system: ryegrass, Italian (italian ryegrass, Lolium multiflorum); test: as above; details: 10 days
In short: as §1

kochia (Bassia scoparia) [7] = test: as above; details: 10 days
In short: as §1

[8] = system: barnyardgrass (Echinochloa crus-galli); test: as above; details: 10 days
In short: as §1

[9] = system: wheat (Triticum aestivum); test: as above; details: 10 days
In short: as §1

[10] = system: green foxtail (Setaria viridis); test: as above; details: 10 days
In short: as §1

[11] = system: horseweed (Erigeron canadensis); test: as above; details: Postemergence, 125 g ai/ha, 10 days; 0 is no effect, 100 is complete control
In short: as §1

[12] = system: ragweed (common ragweed, Ambrosia artemisiifolia); test: as above; details: 10 days
In short: as §1

corn (Zea mays) [13] = test: as above; details: 10 days
In short: as §1

[14] = system: oat, wild (wild oat, Avena fatua); test: Test A preemergence soil spray, visual injury rating 0-100; details: 10 days, 0 = no effect, 100 = complete control
In short: as §1

[15] = system: blackgrass (Alopecurus myosuroides); test: as above; details: 10 days, 0 = no effect, 100 = complete control
In short: as §1

[16] = system: palmer (palmer amaranth, palmer pigweed, Amaranthus palmeri); test: as above; details: 10 days, 0 = no effect, 100 = complete control
In short: as §1

soybean (Glycine max) [17] = test: as above; details: 10 days, 0 = no effect, 100 = complete control
In short: as §1

[18] = system: ryegrass, Italian (italian ryegrass, Lolium multiflorum); test: as above; details: 10 days, 0 = no effect, 100 = complete control
In short: as §1

kochia (Bassia scoparia) [19] = test: as above; details: 10 days, 0 = no effect, 100 = complete control
In short: as §1

[20] = system: barnyardgrass (Echinochloa crus-galli); test: as above; details: 10 days, 0 = no effect, 100 = complete control
In short: as §1

[21] = system: wheat (Triticum aestivum); test: as above; details: 10 days, 0 = no effect, 100 = complete control
In short: as §1

[22] = system: green foxtail (Setaria viridis); test: as above; details: 10 days, 0 = no effect, 100 = complete control
In short: as §1

[23] = system: ragweed (common ragweed, Ambrosia artemisiifolia); test: as above; details: 10 days, 0 = no effect, 100 = complete control
In short: as §1

corn (Zea mays) [24] = test: as above; details: 10 days, 0 = no effect, 100 = complete control
In short: as §1

[25] = system: sedge, umbrella (small-flower umbrella sedge, Cyperus difformis); test: Test B flooded paddy test, visual plant response rating 0-100; details: 250 g ai/ha, Flood, applied to paddy water, evaluated after 13 days
In short: (§2)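 Treatment occurs at the 2-leaf stage by adding compound to floodwater standing 3 cm above the soil, a level kept for the whole test. Plants stay in the greenhouse 13 days before visual comparison with controls.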

[26] = system: ducksalad (Heteranthera limosa); test: as above; details: 250 g ai/ha, Flood, applied to paddy water, evaluated after 13 days
In short: as §2

rice (Oryza sativa) = test: as above; details: 250 g ai/ha, Flood, applied to paddy water, evaluated after 13 days
In short: as §2

[27] = system: barnyardgrass (Echinochloa crusgalli); test: as above; details: 250 g ai/ha, Flood, applied to paddy water, evaluated after 13 days
In short: as §2

[28] = 31 g ai/ha, postemergence, 0 = no effect, 100 = complete control
[29] = Postemergence, 125 g ai/ha, 0 is no effect, 100 is complete control

Structure (SMILES): CC(C)OC(=O)C1CCC(NC(=O)C2(C)CN(c3cc(F)cc(Cl)c3)C(=O)O2)C1 (stereo not drawn) [Compound 2]
- Oat, Wild plant response rating (0-100) [1, 28]: 70
- Oat, Wild plant response rating (0 to 100 scale) [1, 29]: 90
- Galium plant response rating (0-100) [2, 28]: 60
- Galium plant response rating (0 to 100 scale) [2, 29]: 90
- Blackgrass plant response rating (0-100) [3, 28]: 60
- Blackgrass plant response rating (0 to 100 scale) [3, 29]: 70
- Amaranth, Palmer plant response rating (0-100) [4, 28]: 0
- Amaranth, Palmer / Pigweed, Palmer plant response rating (0 to 100 scale) [4, 29]: 50
- Soybean plant response rating (0-100) (soybean (Glycine max) [5]; [28]): 20
- Soybean plant response rating (0 to 100 scale) (soybean (Glycine max) [5]; [29]): 70
- Ryegrass, Italian plant response rating (0-100) [6, 28]: 50
- Ryegrass, Italian plant response rating (0 to 100 scale) [6, 29]: 90
- Kochia plant response rating (0-100) (kochia (Bassia scoparia) [7]; [28]): 0
- Kochia plant response rating (0 to 100 scale) (kochia (Bassia scoparia) [7]; [29]): 80
- Barnyardgrass plant response rating (0-100) [8, 28]: 50
- Barnyardgrass plant response rating (0 to 100 scale) [8, 29]: 100
- Wheat plant response rating (0-100) [9, 28]: 80
- Wheat plant response rating (0 to 100 scale) [9, 29]: 90
- Foxtail, Green plant response rating (0-100) [10, 28]: 0
- Foxtail, Green plant response rating (0 to 100 scale) [10, 29]: 90
- Horseweed plant response rating (0 to 100 scale) [11]: 0
- Ragweed plant response rating (0-100) [12, 28]: 20
- Ragweed plant response rating (0 to 100 scale) [12, 29]: 50
- Corn plant response rating (0-100) (corn (Zea mays) [13]; [28]): 40
- Corn plant response rating (0 to 100 scale) (corn (Zea mays) [13]; [29]): 100
- Oat, Wild plant response rating (0-100) ([14]; 31 g ai/ha): 0
- Oat, Wild plant response rating (0 to 100 scale) ([14]; 125 g ai/ha): 70
- Blackgrass plant response rating (0-100) ([15]; 31 g ai/ha): 0
- Blackgrass plant response rating (0 to 100 scale) ([15]; 125 g ai/ha): 50
- Amaranth, Palmer plant response rating (0-100) ([16]; 31 g ai/ha): 20
- Amaranth, Palmer plant response rating (0 to 100 scale) ([16]; 125 g ai/ha): 80
- Soybean plant response rating (0-100) (soybean (Glycine max) [17]; 31 g ai/ha): 0
- Soybean plant response rating (0 to 100 scale) (soybean (Glycine max) [17]; 125 g ai/ha): 20
- Ryegrass, Italian plant response rating (0-100) ([18]; 31 g ai/ha): 20
- Ryegrass, Italian plant response rating (0 to 100 scale) ([18]; 125 g ai/ha): 80
- Kochia plant response rating (0-100) (kochia (Bassia scoparia) [19]; 31 g ai/ha): 0
- Kochia plant response rating (0 to 100 scale) (kochia (Bassia scoparia) [19]; 125 g ai/ha): 70
- Barnyardgrass plant response rating (0-100) ([20]; 31 g ai/ha): 10
- Barnyardgrass plant response rating (0 to 100 scale) ([20]; 125 g ai/ha): 90
- Wheat plant response rating (0-100) ([21]; 31 g ai/ha): 50
- Wheat plant response rating (0 to 100 scale) ([21]; 125 g ai/ha): 90
- Foxtail, Green plant response rating (0-100) ([22]; 31 g ai/ha): 0
- Foxtail, Green plant response rating (0 to 100 scale) ([22]; 125 g ai/ha): 90
- Ragweed plant response rating (0-100) ([23]; 31 g ai/ha): 30
- Ragweed plant response rating (0 to 100 scale) ([23]; 125 g ai/ha): 0
- Corn plant response rating (0-100) (corn (Zea mays) [24]; 31 g ai/ha): 20
- Corn plant response rating (0 to 100 scale) (corn (Zea mays) [24]; 125 g ai/ha): 70
- Plant response rating, Sedge, Umbrella (0 to 100 scale, 0 is no effect and 100 is complete control) [25]: 75
- Plant response rating, Ducksalad (0 to 100 scale, 0 is no effect and 100 is complete control) [26]: 65
- Plant response rating, Rice (0 to 100 scale, 0 is no effect and 100 is complete control) (rice (Oryza sativa)): 20
- Plant response rating, Barnyardgrass (0 to 100 scale, 0 is no effect and 100 is complete control) [27]: 95
